What was measured:
[1] = cited from earlier work
herpes genitalias = assay: Patient case, topical treatment of herpes genitalis; format: in vivo, human; conditions: person, high dose
Experimental: Operating with informed consent, individuals treated with the topical composition and the methods of the present invention for treating herpes virus infection, more particularly Herpes simplex and herpes zoster or shingles, as described in Examples 3 to 8.
A person presented with a decade or longer history of herpes genitalias recurring on the epithelium of the penis, more specifically the shaft. […] The patient was then treated with Composition B of the cannabinoid rich topical of Example 1 one to two times a day.

Herpes simplex = assay: Informal patient trials, topical treatment of Herpes simplex of the lips / herpes labialis; format: in vivo, human; conditions: person; for benefit of prior therapy, orally: oral
[2] = cited from earlier work; remark: listed apart in the source

In the case of CCCCCc1cc(O)c2c(c1)OC(C)(C)[C@@H]1CCC(C)=C[C@@H]21 [THC, delta-9-tetrahydrocannabinol], the “solubility in organic solvents” value ([1]; specifically lipids and alcohols) is listed as “good solubility in most organic solvents”.
In the case of CC(C)[C@H](N)C(=O)OCCOCn1cnc2c(=O)[nH]c(N)nc21 [Valtrex, valacyclovir], the “response of severe pain with burning and tingling to prior therapy” value (herpes genitalias) is reported as “had not responded”, the “satisfaction with prior therapy” value (Herpes simplex; high doses) is reported as “without total satisfaction” and the “benefit of prior therapy, orally” value (Herpes simplex) is reported as “slight benefit”.
For Nc1nc2c(ncn2COCCO)c(=O)[nH]1 [Zovirax, acyclovir], the “benefit of prior therapy, orally” value (Herpes simplex) was “slight benefit” and the “benefit of prior therapy, topically” value (Herpes simplex; topical) was “without benefit”.
For Nc1nc2c(ncn2COCCO)c(=O)[nH]1 [acyclovir], the “concentrations in the skin following topical application versus following oral administration” value [2] is listed as 2-3 times lower and the solubility in water [1] is listed as “poor water-solubility”.

Reference: US10894069B2, “Topical antiviral formulations and methods of using the same” (priority 2015, dated 2021)
